How the values were obtained:
[1] = tested on: Aspergillus flavus IFO 6343; experiment: Viable Count of Aspergillus flavus IFO 6343 in Erythritol Solution; assay type: cell-based
Description: (§1) Erythritol solutions of respective concentrations in the range of from 30 to 60% were prepared. To these were inoculated Staphylococcus aureus IFO 13276, Bacillus subtilis IFO 3134, and Escherichia coli IFO 3972 as bacteria, Candida albicans IFO 1549 and Saccharomyces cerevisiae ATCC 9763 as yeasts, Aspergillus niger IFO 6342, Aspergillus flavus IFO 6343, and Penicillium funiculosum IFO 6345 as fungi, respectively, in a population (concentration) of 10,000 cells/mL or more. After the inoculation, the solutions were stored at 30, 37, 45, 50, or 60° C., respectively, for 56 days and the number of viable cell was determined daily. The determination of the number of viable cell was performed by a method of coating 0.1 mL of appropriately diluted sample cultivation on an agar plate and cultivating and counting the number of viable cell (the number of colony) that grew after the cultivation.

[2] = tested on: Saccharomyces cerevisiae ATCC 9763; experiment: Viable Count of Saccharomyces cerevisiae ATCC 9763 in Erythritol Solution; assay type: cell-based
Description: as §1

For OC[C@@H](O)[C@@H](O)CO [Erythritol Solution, erythritol], the “The Number of Viable Cell” value ([1]; 45° C., 30% w/w, Day 0) was at least 10000 cells/mL, the “The Number of Viable Cell” value ([1]; 45° C., 30% w/w, Day 3) was at least 10000 cells/mL and the “The Number of Viable Cell” value ([1]; 45° C., 30% w/w, Day 7) was at least 10000 cells/mL. The “The Number of Viable Cell” value ([1]; 45° C., 30% w/w, Day 14) was at least 10000 cells/mL, the “The Number of Viable Cell” value ([1]; 45° C., 30% w/w, Day 28) was 0 cells/mL and the “The Number of Viable Cell” value ([1]; 45° C., 30% w/w, Day 56) was 0 cells/mL. For the same compound, the “The Number of Viable Cell” value ([1]; 45° C., 40% w/w, Day 0) was at least 10000 cells/mL, the “The Number of Viable Cell” value ([1]; 45° C., 40% w/w, Day 3) was at least 10000 cells/mL and the “The Number of Viable Cell” value ([1]; 45° C., 40% w/w, Day 7) was at least 10000 cells/mL. The “The Number of Viable Cell” value ([1]; 45° C., 40% w/w, Day 14) was at least 10000 cells/mL, the “The Number of Viable Cell” value ([1]; 45° C., 40% w/w, Day 28) was 0 cells/mL and the “The Number of Viable Cell” value ([1]; 45° C., 40% w/w, Day 56) was 0 cells/mL. For the same compound, the “The Number of Viable Cell” value ([1]; 45° C., 50% w/w, Day 0) was at least 10000 cells/mL, the “The Number of Viable Cell” value ([1]; 45° C., 50% w/w, Day 3) was at least 10000 cells/mL and the “The Number of Viable Cell” value ([1]; 45° C., 50% w/w, Day 7) was at least 10000 cells/mL. The “The Number of Viable Cell” value ([1]; 45° C., 50% w/w, Day 14) was 0 cells/mL, the “The Number of Viable Cell” value ([1]; 45° C., 50% w/w, Day 28) was 0 cells/mL and the “The Number of Viable Cell” value ([1]; 45° C., 50% w/w, Day 56) was 0 cells/mL. For the same compound, the “The Number of Viable Cell” value ([1]; 50° C., 30% w/w, Day 0) was at least 10000 cells/mL, the “The Number of Viable Cell” value ([1]; 50° C., 30% w/w, Day 3) was 0 cells/mL and the “The Number of Viable Cell” value ([1]; 50° C., 30% w/w, Day 7) was 0 cells/mL. For the same compound, the “The Number of Viable Cell” value ([1]; 50° C., 30% w/w, Day 14) was 0 cells/mL, the “The Number of Viable Cell” value ([1]; 50° C., 30% w/w, Day 28) was 0 cells/mL and the “The Number of Viable Cell” value ([1]; 50° C., 30% w/w, Day 56) was 0 cells/mL. For the same compound, the “The Number of Viable Cell” value ([1]; 50° C., 40% w/w, Day 0) was at least 10000 cells/mL, the “The Number of Viable Cell” value ([1]; 50° C., 40% w/w, Day 3) was 0 cells/mL and the “The Number of Viable Cell” value ([1]; 50° C., 40% w/w, Day 7) was 0 cells/mL. The “The Number of Viable Cell” value ([1]; 50° C., 40% w/w, Day 14) was 0 cells/mL, the “The Number of Viable Cell” value ([1]; 50° C., 40% w/w, Day 28) was 0 cells/mL and the “The Number of Viable Cell” value ([1]; 50° C., 40% w/w, Day 56) was 0 cells/mL. The “The Number of Viable Cell” value ([1]; 50° C., 50% w/w, Day 0) was at least 10000 cells/mL, the “The Number of Viable Cell” value ([1]; 50° C., 50% w/w, Day 3) was 0 cells/mL and the “The Number of Viable Cell” value ([1]; 50° C., 50% w/w, Day 7) was 0 cells/mL. The “The Number of Viable Cell” value ([1]; 50° C., 50% w/w, Day 14) was 0 cells/mL, the “The Number of Viable Cell” value ([1]; 50° C., 50% w/w, Day 28) was 0 cells/mL and the “The Number of Viable Cell” value ([1]; 50° C., 50% w/w, Day 56) was 0 cells/mL. For the same compound, the “growth of the microbes” value ([1]; temperature of 50° C. or more) was “prevented from growing”, the “time after which microbes died” value ([1]; temperature of 50° C. or more) was 3 days and the “The Number of Viable Cell” value ([2]; 37° C., 30% w/w, Day 0) was at least 10000 cells/mL. For the same compound, the “The Number of Viable Cell” value ([2]; 37° C., 30% w/w, Day 3) was at least 10000 cells/mL, the “The Number of Viable Cell” value ([2]; 37° C., 30% w/w, Day 7) was at least 10000 cells/mL and the “The Number of Viable Cell” value ([2]; 37° C., 30% w/w, Day 14) was at least 10000 cells/mL. The “The Number of Viable Cell” value ([2]; 37° C., 30% w/w, Day 28) was at least 10000 cells/mL, the “The Number of Viable Cell” value ([2]; 37° C., 30% w/w, Day 56) was 0 cells/mL and the “The Number of Viable Cell” value ([2]; 37° C., 40% w/w, Day 0) was at least 10000 cells/mL. The “The Number of Viable Cell” value ([2]; 37° C., 40% w/w, Day 3) was at least 10000 cells/mL, the “The Number of Viable Cell” value ([2]; 37° C., 40% w/w, Day 7) was at least 10000 cells/mL and the “The Number of Viable Cell” value ([2]; 37° C., 40% w/w, Day 14) was at least 10000 cells/mL. For the same compound, the “The Number of Viable Cell” value ([2]; 37° C., 40% w/w, Day 28) was 1130 cells/mL, the “The Number of Viable Cell” value ([2]; 37° C., 40% w/w, Day 56) was 0 cells/mL and the “The Number of Viable Cell” value ([2]; 45° C., 30% w/w, Day 0) was at least 10000 cells/mL. The “The Number of Viable Cell” value ([2]; 45° C., 30% w/w, Day 3) was 1480 cells/mL, the “The Number of Viable Cell” value ([2]; 45° C., 30% w/w, Day 7) was 0 cells/mL and the “The Number of Viable Cell” value ([2]; 45° C., 30% w/w, Day 14) was 0 cells/mL. The “The Number of Viable Cell” value ([2]; 45° C., 30% w/w, Day 28) was 0 cells/mL, the “The Number of Viable Cell” value ([2]; 45° C., 30% w/w, Day 56) was 0 cells/mL and the “The Number of Viable Cell” value ([2]; 45° C., 40% w/w, Day 0) was at least 10000 cells/mL. For the same compound, the “The Number of Viable Cell” value ([2]; 45° C., 40% w/w, Day 3) was 1440 cells/mL, the “The Number of Viable Cell” value ([2]; 45° C., 40% w/w, Day 7) was 0 cells/mL and the “The Number of Viable Cell” value ([2]; 45° C., 40% w/w, Day 14) was 0 cells/mL. For the same compound, the “The Number of Viable Cell” value ([2]; 45° C., 40% w/w, Day 28) was 0 cells/mL, the “The Number of Viable Cell” value ([2]; 45° C., 40% w/w, Day 56) was 0 cells/mL and the “The Number of Viable Cell” value ([2]; 45° C., 50% w/w, Day 0) was at least 10000 cells/mL. The “The Number of Viable Cell” value ([2]; 45° C., 50% w/w, Day 3) was 1600 cells/mL, the “The Number of Viable Cell” value ([2]; 45° C., 50% w/w, Day 7) was 0 cells/mL and the “The Number of Viable Cell” value ([2]; 45° C., 50% w/w, Day 14) was 0 cells/mL. For the same compound, the “The Number of Viable Cell” value ([2]; 45° C., 50% w/w, Day 28) was 0 cells/mL, the “The Number of Viable Cell” value ([2]; 45° C., 50% w/w, Day 56) was 0 cells/mL and the “The Number of Viable Cell” value ([2]; 50° C., 30% w/w, Day 0) was at least 10000 cells/mL. The “The Number of Viable Cell” value ([2]; 50° C., 30% w/w, Day 3) was 0 cells/mL.

Reference: patent publication US6489469B1, “Method for storing or transporting erythritol solution” (Nikken Chemicals Co., Ltd., priority 1999, dated 2002)
